Data published in US4775677A, “[3-substituted-2-(substituted imino)-4-oxo-5-thiazolidinylidene]acetic acids having activity as leukotriene antagonists” (Warner-Lambert Company, priority 1987, dated 1988).

target: leukotriene receptor; test: leukotriene receptor binding assay (RBL-1); settings: Bruns et al
Description: The usefulness of the compounds of Formula I is particularly directed to the treatment of humans. By virtue of the activity of the compounds having the Formula I of the present invention as antagonists of Slow Reacting Substance of Anaphylaxis (leukotrienes C, D, and E) are useful in the treatment of allergic rhinitis, asthma, bronchitis, and urticaria. They are also particularly useful for the treatment of cardiovascular diseases mediated by leukotrienes, C, D, and E. See B. Samuelsson, "Leukotrienes: Mediators of Immediate Hypersensitivity Reactions and Inflammation,"Science, Vol. 220, p. 568 (1983); P. J. Piper, "Leukotrienes," Trends in Pharmaceutic Sciences, pp. 75-77 (1983; and J. L. Romson, et al, "Reduction of the Extent of Ischemic Myocardial Injury by Neutrophil Depletion in the Dog," Circulation, Vol. 67, p. 1016 (1983). The activity of the compounds I of the present invention is determined in a leukotriene receptor binding assay (RBL-1) described by R. F. Bruns, W. J. Thomsen, and T. A. Pugsley in Life Sciences, 33, p. 645 (1983).
When tested by the procedures in a leukotriene receptor binding assay (RBL-1) as described by Bruns et al cited above, the compounds of the Formula I as defined in the present invention have the indicated activity as shown in Table 5 as IC50 values expressed in μMs (micromolar).

Point of comparison: `CCCCCCCCN=C1SC(=CC(=O)O)C(=O)N1CCCCCCCC` [Example 1, [3-Octyl-2-(octylimino)-4-oxo-5-thiazolidinylidene]acetic acid], IC50 19 µM. Against it:
- CCN=C1SC(=CC(=O)O)C(=O)N1CC [Example 2, [3-Ethyl-2-(ethylimino)-4-oxo-5-thiazolidinylidene]acetic acid] — higher, > 100 µM
- CCCCCN=C1SC(=CC(=O)O)C(=O)N1CCCCC [Example 3, [3-Pentyl-2-(pentylimino)-4-oxo-5-thiazolidinylidene]acetic acid] — within 1.5-fold, 15.4 µM
- CCCCCCN=C1SC(=CC(=O)O)C(=O)N1CCCCCC [Example 4, [3-Hexyl-2-(hexylimino)-4-oxo-5-thiazolidinylidene]acetic acid] — within 1.5-fold, 24.5 µM
- COc1cc(N=C2SC(=CC(=O)O)C(=O)N2c2cc(OC)c(OC)c(OC)c2)cc(OC)c1OC [Example 6, [4-Oxo-3-(3,4,5-trimethoxyphenyl)-2-[(3,4,5-trimethoxyphenyl)imino]-5-thiazolidinylidene]acetic acid] — higher, > 100 µM
- COc1ccc(N=C2SC(=CC(=O)O)C(=O)N2c2ccc(OC)cc2)cc1 [Example 7, [4-Oxo-3-(4-methoxyphenyl)-2-[(4-methoxyphenyl)imino]-5-thiazolidinylidene]acetic acid] — higher, > 100 µM
- CCCN=C1SC(=CC(=O)O)C(=O)N1CCC [Example 8, [4-Oxo-3-propyl-2-(propylimino)-5-thiazolidinylidene]acetic acid] — higher, > 100 µM
- CCCCN=C1SC(=CC(=O)O)C(=O)N1CCCC [Example 9, [3-Butyl-2-(butylimino)-4-oxo-5-thiazolidinylidene]acetic acid] — higher, > 100 µM
- COc1ccccc1N=C1SC(=CC(=O)O)C(=O)N1c1ccccc1OC [Example 10, [3-(2-Methoxyphenyl)-2-[(2-methoxyphenyl)imino]-4-oxo-5-thiazolidinylidene]acetic acid] — higher, > 100 µM
- CCCCCCN1C(=O)C(=CC(=O)O)SC1=Nc1ccc(Cl)c(Cl)c1 [Example 11, [2-[(3,4-dichlorophenyl)imino]-3-hexyl-4-oxo-5-thiazolidinylidene]acetic acid] — 1.6-fold lower, 12.2 µM
- CN1C(=O)C(=CC(=O)O)SC1=Nc1ccc(Cl)c(Cl)c1 [Example 12, [2-[(3,4-dichlorophenyl)imino]-3-methyl-4-oxo-5-thiazolidinylidene]acetic acid] — higher, > 100 µM
- CCCCCCN1C(=O)C(=CC(=O)O)SC1=Nc1ccccc1 [Example 13, [3-Hexyl-4-oxo-2-(phenylimino)-5-thiazolidinylidene]acetic acid] — 2.1-fold higher, 39.2 µM
- O=C(O)C=C1SC(=NCCc2ccccc2)N(CCc2ccccc2)C1=O [Example 15, [4-Oxo-3-(2-phenylethyl)-2-[(2-phenylethyl)imino]-5-thiazolidinylidene]acetic acid] — higher, > 100 µM
- CCCCCCCCCCCN=C1SC(=CC(=O)O)C(=O)N1CCCCCCCCCCC [Example 16, [3-Undecyl-2-(undecylimino)-4-oxo-5-thiazolidinylidene]acetic acid] — higher, > 100 µM
- CCCCCCN1C(=O)C(=CC(=O)O)SC1=Nc1cccc2ccccc12 [Example 17, [3-Hexyl-2-[(1-naphthalenyl)imino]-4-oxo-5-thiazolidinylidene]acetic acid] — 1.8-fold lower, 10.3 µM
- CCCCCCCN=C1SC(=CC(=O)O)C(=O)N1CCCCCCC [Example 18, [3-Heptyl-2-(heptylimino)-4-oxo-5-thiazolidinylidene]acetic acid] — within 1.5-fold, 12.7 µM
- CCCCCCCCCCN=C1SC(=CC(=O)O)C(=O)N1CCCCCCCCCC [Example 19, [3-Decyl-2-(decylimino)-4-oxo-5-thiazolidinylidene]acetic acid] — higher, > 100 µM
- CCCCCCCCCCCCN=C1SC(=CC(=O)O)C(=O)N1CCCCCCCCCCCC [Example 20, [3-Dodecyl-2-(dodecylimino)-4-oxo-5-thiazolidinylidene]acetic acid] — higher, > 100 µM
- O=C(O)C=C1SC(=Nc2ccc(Cl)c(Cl)c2)N(c2ccc(Cl)c(Cl)c2)C1=O [Example 21, [4-oxo-3-(3,4-dichlorophenyl)-2-[(3,4-dichlorophenyl)imino]-5-thiazolidinylidene]acetic acid] — within 1.5-fold, 15.6 µM
- O=C(O)C=C1SC(=Nc2ccc(Br)c(Br)c2)N(c2ccc(Br)c(Br)c2)C1=O [Example 22, [4-Oxo-3-(3,4-dibromophenyl)-2-[(3,4-dibromophenyl)imino]-5-thiazolidinylidene]acetic acid] — within 1.5-fold, 18.9 µM
- O=C(O)C=C1SC(=Nc2cc(Cl)c(Cl)c(Cl)c2)N(c2cc(Cl)c(Cl)c(Cl)c2)C1=O [Example 23] — within 1.5-fold, 13.1 µM
- COc1cccc(N=C2SC(=CC(=O)O)C(=O)N2c2cccc(OC)c2)c1 [Example 24, [3-(3-Methoxyphenyl)-2-[(3-methoxyphenyl)imino]-4-oxo-5-thiazolidinylidene]acetic acid] — higher, > 100 µM
- O=C(O)C=C1SC(=NC2CCCCC2)N(C2CCCCC2)C1=O [Example 25, [3-Cyclohexyl-2-(cyclohexylimino)-4-oxo-5-thiazolidinylidene]acetic acid] — 3.3-fold higher, 62.5 µM
